Results taken from paper PMC8359396, “Pharmacological validation of TDO as a target for Parkinson’s disease” (The Febs Journal, 2021).
pIC50: −log10 of the molar value.

Columns and labels:
[1] = test system: rotenone‐induced mouse model of PD; test: α‐Synuclein immunofluorescent staining of colon in rotenone model; type: in vivo, male C57BL/6NCrl mice; conditions: rotenone mice; all doses: 12.5 mg·kg^−1, P < 0.01; 25 and 50 mg·kg^−1, P < 0.001
Method: (§1) Parkinson’s disease is associated with the activation of glial cells in the enteric nervous system. Furthermore, aggregates of α‐synuclein have been observed in the enteric nervous system of PD patients. The expression of glial fibrillary acidic protein (GFAP), a marker of enteric glial cells, and of α‐synuclein was determined by immunofluorescent staining of fixed sections of the colons of the sacrificed mice.
(§2) Expression of GFAP and α‐synuclein in colonic tissue was determined using confocal microscopy (Leica SP8). The colons of the mice were embedded in paraffin. Sections of 15 µm were cut and incubated with 0.3% (v/v) H2O2 for 30 min, rehydrated and incubated with citrate buffer. Following blocking with serum, the sections were incubated overnight with rabbit anti‐α‐synuclein (Millipore, cat. no. AB5038; Burlington, MA, USA) at a dilution of 1 : 1000, or rabbit anti‐GFAP (Dako, cat. no. Z0334), 1 : 1000. After incubation with Alexa® 488‐labeled donkey anti‐rabbit secondary antibody, the slides were mounted using Vectashield® medium for fluorescence with DAPI (Vector Laboratories, cat. no. H‐1000; Burlingame, CA, USA).
(§3) Immunofluorescence images were made using a Keyence BZ‐9000 microscope. GFAP and α‐synuclein staining were quantified by calculation of the corrected total fluorescence (CTF) with the formula: integrated density – (area × mean fluorescence of background reading).

[2] = test system: rotenone‐induced mouse model of PD; test: Rotarod test in rotenone model; type: in vivo, male C57BL/6NCrl mice; conditions: highest dose p.o. once daily: 50 mg·kg^−1, P < 0.05
Method: To investigate the effects of TDO inhibition, both compounds were orally administered once daily from day 7 after induction of the PD model (Fig. 5A). […] In this test, the time spent on an accelerating wheel was used to analyze motor function.
Food and water was provided ad libitum.
Motor function was assessed in the rotarod test by placing mice on an accelerating rod with speeds starting at 2 rpm and gradually increasing to 20 rpm. The latency to fall was recorded for a maximum of 300 s. Baseline motor function was tested seven days after surgery, and subsequently, motor function was tested every seven days until day 42.

[3] = test system: rotenone‐induced mouse model of PD; test: Microglia (Iba1) volume and occupied space in substantia nigra, iDISCO; conditions: highest dose (50 mg·kg^−1); P < 0.05
[4] = test system: rotenone‐induced mouse model of PD; test: TH‐positive (dopaminergic) cells in substantia nigra, iDISCO; type: in vivo, male C57BL/6NCrl mice; conditions: rotenone mice; two highest doses (25 and 50 mg·kg^−1); P < 0.01
[5] = test system: rotenone‐induced mouse model of PD; test: Spatial memory test in rotenone model; conditions: rotenone mice; 42 days after surgery; highest dose (50 mg·kg^−1); similar trend
[6] = In vivo pharmacokinetics and brain penetration; conditions: for AUC: AUCplasma; for Cmax: plasma; for half-life: t½; for Kp uu: Kpuu (unbound brain‐to‐plasma partition coefficient)
[7] = test system: rotenone‐induced mouse model of PD; test: GFAP immunofluorescent staining of colon in rotenone model; type: in vivo, male C57BL/6NCrl mice; conditions: rotenone mice; highest two doses: 25 mg·kg^−1, P < 0.001; 50 mg·kg^−1, P < 0.0001
Method: as §1, §2, §3

[8] = biological target: T1, human MDR1 P‐glycoprotein‐overexpressing MDCK cells (Homo sapiens, UniProt P08183); test: Bi‐directional transport assay, MDCK‐MDR1 monolayer; type: in vitro ADME; conditions: MDCK‐MDR1, with and without elacridar
T1 construct: host or cells: MDCK (canine kidney)
T1 sequence (P08183 whole entry): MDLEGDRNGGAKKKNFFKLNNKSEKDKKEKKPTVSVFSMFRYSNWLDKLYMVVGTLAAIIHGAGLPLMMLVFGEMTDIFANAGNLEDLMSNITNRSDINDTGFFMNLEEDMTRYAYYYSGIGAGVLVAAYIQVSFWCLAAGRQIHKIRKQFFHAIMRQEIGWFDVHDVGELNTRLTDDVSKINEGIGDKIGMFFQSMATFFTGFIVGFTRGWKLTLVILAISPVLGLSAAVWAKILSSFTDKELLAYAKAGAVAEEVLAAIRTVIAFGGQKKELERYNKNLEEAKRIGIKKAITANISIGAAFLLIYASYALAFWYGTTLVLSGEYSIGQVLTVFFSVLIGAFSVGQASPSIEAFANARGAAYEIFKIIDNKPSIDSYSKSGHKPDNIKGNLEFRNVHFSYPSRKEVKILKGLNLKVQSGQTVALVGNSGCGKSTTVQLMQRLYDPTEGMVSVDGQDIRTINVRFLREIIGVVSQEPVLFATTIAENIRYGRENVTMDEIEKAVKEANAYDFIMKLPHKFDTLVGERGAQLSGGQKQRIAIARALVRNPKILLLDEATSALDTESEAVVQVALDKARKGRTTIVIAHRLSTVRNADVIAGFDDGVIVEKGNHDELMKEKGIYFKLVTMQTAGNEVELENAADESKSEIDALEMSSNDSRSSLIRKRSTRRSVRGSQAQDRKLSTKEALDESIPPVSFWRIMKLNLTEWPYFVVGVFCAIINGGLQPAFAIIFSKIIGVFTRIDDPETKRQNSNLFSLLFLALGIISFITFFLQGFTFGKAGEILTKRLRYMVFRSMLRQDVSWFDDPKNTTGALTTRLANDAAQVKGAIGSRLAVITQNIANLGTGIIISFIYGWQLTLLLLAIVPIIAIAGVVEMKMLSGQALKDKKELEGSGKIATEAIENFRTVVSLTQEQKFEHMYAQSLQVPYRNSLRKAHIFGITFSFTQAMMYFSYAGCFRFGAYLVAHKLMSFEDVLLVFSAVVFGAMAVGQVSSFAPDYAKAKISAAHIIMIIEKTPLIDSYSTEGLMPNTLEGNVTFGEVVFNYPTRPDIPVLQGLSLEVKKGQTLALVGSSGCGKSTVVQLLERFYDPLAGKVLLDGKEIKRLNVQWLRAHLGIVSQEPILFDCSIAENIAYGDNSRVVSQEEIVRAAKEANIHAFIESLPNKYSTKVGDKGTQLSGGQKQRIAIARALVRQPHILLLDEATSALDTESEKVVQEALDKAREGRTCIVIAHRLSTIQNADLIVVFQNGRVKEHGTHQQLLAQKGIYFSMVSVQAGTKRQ
Method: (§4) To determine whether NTRC 3531‐0 could potentially enter the brain, a bi‐directional transport assay was performed with Madin‐Darby canine kidney (MDCK) cells overexpressing the human ABCB1 gene‐encoded MDR1 P‐glycoprotein (MDCK‐MDR1) at Cyprotex (Macclesfield, UK). MDCK‐MDR1 cells form a confluent monolayer in Transwell® cell culture plates (Corning) and express active MDR1 P‐glycoprotein at the apical side. The cell model is a surrogate model of the brain capillary endothelial cell layer that constitutes the blood–brain barrier. The transport of NTRC 3531‐0 from the apical (A) to the basolateral (B) side of the monolayer (P app, A to B), and from basolateral (B) to apical (A) (P app, B to A), was determined by measuring compound levels in the two compartments of the Transwell plates by liquid chromatography–tandem mass spectrometry (LC‐MS/MS) (Table 2). Transport assays were performed in the absence and presence of the P‐glycoprotein inhibitor elacridar.

[9] = biological target: T2, human MDR1 P-glycoprotein (ABCB1) (Homo sapiens, UniProt P08183); test: as above; type: in vitro ADME; conditions: dog; MDCK‐MDR1; Elacridar −
T2 construct: host or cells: MDCK (canine kidney)
T2 sequence (P08183 whole entry): as above
Method: as §4

[10] = biological target: hTDO2‐overexpressing HEK‐293 cells (HEK‐hTDO) (Homo sapiens, UniProt P48775); test: Cell-based TDO assay, HEK‐hTDO cells (NFK Green); conditions: HEK293, read-out: inhibition HEK‐hTDO
Chain of hTDO2‐overexpressing HEK‐293 cells (HEK‐hTDO) (P48775 whole entry): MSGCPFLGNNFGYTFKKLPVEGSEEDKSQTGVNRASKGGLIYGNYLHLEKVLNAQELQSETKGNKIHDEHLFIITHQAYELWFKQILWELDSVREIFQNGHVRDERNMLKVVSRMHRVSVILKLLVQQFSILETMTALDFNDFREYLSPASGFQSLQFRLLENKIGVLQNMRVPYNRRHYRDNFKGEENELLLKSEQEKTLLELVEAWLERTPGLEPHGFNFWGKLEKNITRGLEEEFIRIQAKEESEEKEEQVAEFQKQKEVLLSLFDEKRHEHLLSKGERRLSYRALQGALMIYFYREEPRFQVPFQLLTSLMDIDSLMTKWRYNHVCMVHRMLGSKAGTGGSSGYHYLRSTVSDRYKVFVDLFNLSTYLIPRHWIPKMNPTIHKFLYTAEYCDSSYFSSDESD

[11] = test system: rotenone‐induced mouse model of PD; test: Intestinal transit of Evans blue in rotenone model; type: in vivo, male C57BL/6NCrl mice; conditions: two highest doses (25 and 50 mg·kg^−1), P < 0.0001
Method: The dye was injected intragastrically, thirty minutes before the sacrifice of the mice. Intestinal transit was measured as the distance travelled by the dye from the pylorus to the most distal part of the colon.

[12] = test system: rotenone‐induced mouse model of PD; test: Colon length in rotenone model; conditions: rotenone mice; two highest doses (25 and 50 mg·kg^−1); P < 0.05
[13] = test system: any cell line used in this study; test: Cell viability assay (ATPlite 1Step); conditions: in parallel with the cell‐based NFK Green assays
Method: In parallel with the cell‐based NFK Green assays, the cytotoxicity of the compounds was determined in cell viability assays using ATPlite™ 1Step (PerkinElmer, Groningen, The Netherlands).

[14] = biological target: mouse TDO (mTDO) (Mus musculus, UniProt P48776); test: TDO biochemical assay (NFK Green), mTDO
Chain of mouse TDO (mTDO) (P48776 whole entry): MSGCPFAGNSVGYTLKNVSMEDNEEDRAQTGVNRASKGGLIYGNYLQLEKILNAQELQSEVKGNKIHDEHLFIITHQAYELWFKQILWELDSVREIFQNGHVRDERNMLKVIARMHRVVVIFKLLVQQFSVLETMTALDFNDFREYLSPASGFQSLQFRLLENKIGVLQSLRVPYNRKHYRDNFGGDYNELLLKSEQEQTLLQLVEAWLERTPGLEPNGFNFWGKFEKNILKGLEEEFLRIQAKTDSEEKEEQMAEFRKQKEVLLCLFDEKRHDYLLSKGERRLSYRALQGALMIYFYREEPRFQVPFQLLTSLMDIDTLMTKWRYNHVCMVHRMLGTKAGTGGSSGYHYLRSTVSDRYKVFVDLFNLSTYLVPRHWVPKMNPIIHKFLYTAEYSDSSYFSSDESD

[15] = male, C57BL/6NCrl, mouse, in vivo, iv, 10 mg, mice, 10 mg∙kg^−1
[16] = male, C57BL/6NCrl, mouse, in vivo, po, 50 mg
[17] = male, C57BL/6NCrl, mouse, in vivo, po, 50 mg, mice, 5‐day p.o., 50 mg∙kg^−1
[18] = male, C57BL/6NCrl, mouse, in vivo, po, 50 mg, mice, single p.o., 50 mg∙kg^−1

## Fc1ccc2c(/C=C/c3nnn[nH]3)c[nH]c2c1 [LM10, reference compound]
[1]
  expression of α‐synuclein in the enteric plexus: decrease in the expression of α‐synuclein
[2]
  motor function (rotarod) of rotenone‐treated mice: significantly improved motor function
[3]
  mean microglia volume in the SN of rotenone‐treated mice: reduced the mean microglia volume
[4]
  rotenone‐induced loss of TH‐positive cells in the SN: decreased the rotenone‐induced loss of TH‐positive cells
[5]
  rotenone‐induced spatial recognition loss: not statistically significant
[6]; male, C57BL/6NCrl, mouse, in vivo, 50 mg/kg, F (oral bioavailability), mice, single p.o. 50 mg∙kg^−1 compared with i.v. 10 mg∙kg^−1
  bioavailability: 63%
[6]; [15]
  AUC: 985 µM·h
  Cmax: 427 µM
  half-life: 1.77 h
[6]; [16]
  Kp: 0.006
  Kp at 5 days: 0.01
[6]; [17]
  AUC: 2360 µM·h
  Cmax: 391 µM
  Kp uu: 0.02
  half-life: 2.35 h
[6]; [18]
  AUC: 3100 µM·h
  Cmax: 688 µM
  Kp uu: 0.012
  half-life: 3.09 h
[6]; mice, 5‐day p.o., 50 mg∙kg^−1
  AUCbrain: 23.8 µM·h
[6]; mice, single p.o. 50 mg∙kg^−1 compared with i.v. 10 mg∙kg^−1
  F (oral bioavailability): 63.1%
[6]; mice, single p.o., 50 mg∙kg^−1
  AUCbrain: 18.5 µM·h
[7]
  GFAP staining in colon: decrease of GFAP staining
[8]
  P‐glycoprotein substrate status: not a P‐glycoprotein substrate
[9]
  Papp A→B: 5.63 ×10⁻⁶ cm/s
  Papp B→A: 1.58 ×10⁻⁶ cm/s
[10]
  inhibition at 0.6 µM: 33%
[11]
  intestinal transit of the PD mice: improved the intestinal transit
[12]
  colon length (rotenone‐induced intestinal inflammatory response): reduced the rotenone‐induced intestinal inflammatory response
[13]
  cytotoxicity: not cytotoxic
[14]
  pIC50: 5.97
